Measurements: patent US7803982B2, “T1R3 transgenic animals, cells and related methods” (The Mount Sinai School of Medicine of New York University, priority 2001, dated 2010)
Entries after “also recorded” stand apart in the source; their conditions may differ. Where a name gives a salt, the structure may show the parent alone.

What follows are molecules tested on chorda tympani (CT) nerve of T1R3 knock-out and B6 wild-type mice (assay: Whole-nerve recording from the chorda tympani (CT) nerve on lingual application of tastants). Conditions: integrated response normalized to 100 mM NH4Cl.
Type: in vivo, mouse
Description: (§1) The general linear model for repeated measurements analysis was used to compare the responses of T1R3 knock-out, B6 wild-type and 129 wild-type mice, with tastant concentration as dependant variables and genotype as fixed factor. For each compound, the responses from all concentrations were analyzed together, the response from each concentration being treated as a single value for the multiple measurement analysis. For behavioral tests, the F value is given for comparison of all genotypes. When a significant difference was found, the Tukey's test was used to determine which means differed. P values from the Tukey's test are given for T1R3 knock-out vs. B6 and for T1R3 knock-out vs. 129. When this analysis gave a borderline p value (0.05<p<0.06) each concentration was analyzed individually using the general linear model univariate analysis. For CT and GL nerve responses to glucose, maltose and sucralose the general linear model univariate analysis was used because only one concentration was tested for each of these tastants.
(§2) To examine the contributions of the gustatory nerves to the behavioral responses, we recorded from the chorda tympani (CT) branch of the facial nerve and the glossopharyngeal (GL) nerve of T1R3 knock-out and B6 wild-type mice. Recordings of electrical impulses from the chorda tympani (CT) and the glossopharyngeal (GL) nerves were performed according to known methods (Kawai, K. et al., Proc. Nat'l. Acad. Sci. USA, 97: 11044 (2000)). Male and female mice were used. Tastants were applied at a regular flow rate to the tongue for 30 seconds (CT) or 60 seconds (GL). Tastant concentrations are listed below:
(§3) At 5, 10, 15, 20 and 25 seconds (for the CT) and 5, 10, 20, 30 and 40 seconds (for the GL) after stimulus onset the integrated response magnitudes to each stimulus were measured in the chart records as magnitudes of pen deflection (mm) from baseline (before stimulation) and averaged. These averages were normalized to the response to NH4Cl and analyzed with the General Linear Model Multiple Measures of SPSS with tastant concentrations provided to subjects as “variables” and genotype differences between subjects as “factor”. The single concentrations (see FIG. 14) used for the sugars, sorbitol and saccharin were chosen to be in the midrange of CT responses of C57BL6 mice based on previous studies (Ninomiya, Y. and Imoto, T., Am J. Physiol., 268: R1019 (1995); Ninomiya, Y. et al., Am J. Physiol., 269: R930 (1995); Inoue, M. et al., Chem. Senses, 26: 915 (2001)).

Row | SMILES | CT responses of T1R3 knock-out mice compared with B6 wild-type mice
1 | OC[C@H]1O[C@H](O[C@]2(CCl)O[C@H](CCl)[C@@H](O)[C@@H]2O)[C@H](O)[C@@H](O)[C@H]1Cl [Sucralose, sucralose] | near-zero
2 | O=C1NS(=O)(=O)c2ccccc21 [saccharin] | near-zero
3 | O=C(CO)[C@@H](O)[C@H](O)[C@H](O)CO [fructose] | diminished; also recorded: moderately or markedly diminished
4 | CC1=CC(=O)[N-]S(=O)(=O)O1.[K+] [AceK, acesulfame K] | markedly diminished; also recorded: near-zero
5 | OC[C@H]1O[C@H](O[C@H]2[C@H](O)[C@@H](O)C(O)O[C@@H]2CO)[C@H](O)[C@@H](O)[C@@H]1O (mixture of isomers) [Maltose, maltose] | significant differences; also recorded: diminished; also recorded: moderately or markedly diminished
6 | OC[C@H]1O[C@@](CO)(O[C@H]2O[C@H](CO)[C@@H](O)[C@H](O)[C@H]2O)[C@@H](O)[C@@H]1O [Sucrose, sucrose] | markedly diminished; also recorded: moderately or markedly diminished
7 | O=C[C@H](O)[C@@H](O)[C@H](O)[C@H](O)CO [Glucose, glucose] | not significantly diminished
8 | N[C@H](Cc1c[nH]c2ccccc12)C(=O)O [D-tryptophan] | nearly abolished; also recorded: near-zero
9 | N[C@@H](CCC(=O)O)C(=O)[O-].[Na+] [MSG, monosodium glutamate] | slightly diminished; also recorded: diminished only at the highest concentration tested
10 | C[C@H](NC(=NCC(=O)O)Nc1ccc(C#N)cc1)c1ccccc1 [SC45647] | markedly diminished; also recorded: near-zero
11 | OC[C@@H](O)[C@@H](O)[C@H](O)[C@@H](O)CO [sorbitol] | diminished; also recorded: moderately or markedly diminished

The molecules below were run on glossopharyngeal (GL) nerve of T1R3 knock-out and B6 wild-type mice (assay: Whole-nerve recording from the glossopharyngeal (GL) nerve on lingual application of tastants). Conditions: B6 wild-type mice.
Type: in vivo, mouse
Description: as §1, §2, §3

Row | SMILES | GL nerve responses of B6 wild-type mice compared with their CT responses
12 | CC1=CC(=O)[N-]S(=O)(=O)O1.[K+] [AceK, acesulfame K] | lower at concentrations below 100 mM, but higher at 300 mM
13 | OC[C@H]1O[C@@](CO)(O[C@H]2O[C@H](CO)[C@@H](O)[C@H](O)[C@H]2O)[C@@H](O)[C@@H]1O [Sucrose, sucrose] | much lower
14 | C[C@H](NC(=NCC(=O)O)Nc1ccc(C#N)cc1)c1ccccc1 [SC45647] | much lower

Same assay, conditions: T1R3 knock-out vs B6 wild-type

Row | SMILES | Concentration at which the reduced GL response of T1R3 knock-out mice was evident [mM]
15 | CC1=CC(=O)[N-]S(=O)(=O)O1.[K+] [AceK, acesulfame K] | 30 to 300

Same assay, conditions: integrated response normalized to 100 mM NH4Cl

Row | SMILES | GL responses of T1R3 knock-out mice compared with B6 wild-type mice
16 | Cl [HCl] | unchanged
17 | CC1=CC(=O)[N-]S(=O)(=O)O1.[K+] [AceK, acesulfame K] | Significant differences; also recorded: reduced
18 | OC[C@H]1O[C@@](CO)(O[C@H]2O[C@H](CO)[C@@H](O)[C@H](O)[C@H]2O)[C@@H](O)[C@@H]1O [Sucrose, sucrose] | Significant differences; also recorded: reduced
19 | C=C[C@H]1CN2CC[C@H]1C[C@H]2[C@H](O)c1ccnc2ccc(OC)cc12.C=C[C@H]1CN2CC[C@H]1C[C@H]2[C@H](O)c1ccnc2ccc(OC)cc12.O=S(=O)(O)O [Quinine, quinine sulfate] | unchanged
20 | N[C@@H](CCC(=O)O)C(=O)[O-].[Na+] [MSG, monosodium glutamate] | no differences
21 | [Cl-].[Na+] [NaCl] | unchanged
22 | C[C@H](NC(=NCC(=O)O)Nc1ccc(C#N)cc1)c1ccccc1 [SC45647] | Significant differences; also recorded: reduced

The molecules below were run on T1R3 knock-out, B6 wild-type and 129 wild-type mice (assay: 48-hour two-bottle preference test (tastant versus water)). Conditions: 48 h two-bottle test; concentrations eliciting preference in B6 wild-type.
Type: in vivo, mouse
Description: Behavioral tests were conducted to examine the responses of T1R3 knock-out mice to tastants representing five taste qualities (sweet, bitter, salty, sour and umami). Mice of both sexes aged between 2 and 12 months were used. Age- and gender-matched mice were used in the three genotype groups, and littermates were used in the knock-out and B6 wild-type control groups. The two-bottle preference test consisted of giving the mice two bottles, one containing deionized water and the other a tastant solution, for 48 hours. The bottle positions were swapped after 24 hours to eliminate position effects. The ratio of tastant to total liquid consumed was measured and compared between groups using known methods (see, e.g., Wong, G. T. et al., Nature, 381: 796 (1996).
The tastants were presented at two-fold or three-fold ascending concentrations. The mice were allowed a 7-day recovery period with deionized water between tastants. The order of tastants for Group 1 was sucrose, quinine, SC45647, MSG, acesulfame K, sucralose and glucose. The order of tastants for Group 2 was NaCl, HCl and maltose. All tastants were of the highest purity available. MSG solutions also contained 10 micromolar amiloride to block the salty taste of the Na+. Tastant concentrations are listed below in order of presentation:
as §1

Row | SMILES | Behavioral (preference) response of T1R3 knock-out mice compared with B6 wild-type mice
23 | OC[C@H]1O[C@H](O[C@]2(CCl)O[C@H](CCl)[C@@H](O)[C@@H]2O)[C@H](O)[C@@H](O)[C@H]1Cl [Sucralose, sucralose] | indifference
24 | CC1=CC(=O)[N-]S(=O)(=O)O1.[K+] [AceK, acesulfame K] | indifference
25 | OC[C@H]1O[C@H](O[C@H]2[C@H](O)[C@@H](O)C(O)O[C@@H]2CO)[C@H](O)[C@@H](O)[C@@H]1O (mixture of isomers) [Maltose, maltose] | no difference
26 | OC[C@H]1O[C@@](CO)(O[C@H]2O[C@H](CO)[C@@H](O)[C@H](O)[C@H]2O)[C@@H](O)[C@@H]1O [Sucrose, sucrose] | markedly diminished; also recorded: indifference
27 | O=C[C@H](O)[C@@H](O)[C@H](O)[C@H](O)CO [Glucose, glucose] | reduced response; also recorded: slightly reduced
28 | N[C@@H](CCC(=O)O)C(=O)[O-].[Na+] [MSG, monosodium glutamate] | moderately diminished
29 | C[C@H](NC(=NCC(=O)O)Nc1ccc(C#N)cc1)c1ccccc1 [SC45647] | indifference

Same assay, conditions: 48 h two-bottle test; concentrations eliciting preference in B6 wild-type; listed as monosodium glutamate (MSG)

Row | SMILES | Behavioral (preference) response of T1R3 knock-out mice compared with B6 wild-type mice
30 | N[C@@H](CCC(=O)O)C(=O)[O-].[Na+] [MSG, monosodium glutamate] | reduced response

Same assay, conditions: B6 (taster), 129 (nontaster), T1R3 knock-out (null)

Row | SMILES | Preference responses compared among B6, 129 and T1R3 knock-out mice
31 | OC[C@H]1O[C@H](O[C@]2(CCl)O[C@H](CCl)[C@@H](O)[C@@H]2O)[C@H](O)[C@@H](O)[C@H]1Cl [Sucralose, sucralose] | strongest in B6 mice, weakest in T1R3 knock-out mice, and intermediate in 129 mice
32 | CC1=CC(=O)[N-]S(=O)(=O)O1.[K+] [AceK, acesulfame K] | strongest in B6 mice, weakest in T1R3 knock-out mice, and intermediate in 129 mice
33 | C[C@H](NC(=NCC(=O)O)Nc1ccc(C#N)cc1)c1ccccc1 [SC45647] | strongest in B6 mice, weakest in T1R3 knock-out mice, and intermediate in 129 mice

Same assay, conditions: concentrations 5- to 10-fold those needed to elicit a strong preference in B6 wild-type mice

Row | SMILES | Behavior of T1R3 knock-out mice at high tastant concentration
34 | OC[C@H]1O[C@@](CO)(O[C@H]2O[C@H](CO)[C@@H](O)[C@H](O)[C@H]2O)[C@@H](O)[C@@H]1O [Sucrose, sucrose] | preferred

Same assay, conditions: concentrations between 30 and 300 mM

Row | SMILES | Preference of T1R3 knock-out mice compared with B6 wild-type mice
35 | N[C@@H](CCC(=O)O)C(=O)[O-].[Na+] [MSG, monosodium glutamate] | reduced, but not abolished

Same assay, conditions: two-bottle preference

Row | SMILES | Response of T1R3 knock-out mice compared with 129 mice
36 | OC[C@H]1O[C@H](O[C@H]2[C@H](O)[C@@H](O)C(O)O[C@@H]2CO)[C@H](O)[C@@H](O)[C@@H]1O (mixture of isomers) [Maltose, maltose] | did not differ
37 | OC[C@H]1O[C@@](CO)(O[C@H]2O[C@H](CO)[C@@H](O)[C@H](O)[C@H]2O)[C@@H](O)[C@@H]1O [Sucrose, sucrose] | weaker
38 | O=C[C@H](O)[C@@H](O)[C@H](O)[C@H](O)CO [Glucose, glucose] | did not differ
